Patent US9975906B2, “Tricyclic heterocycle derivatives having HIV replication inhibitory effect” (Shionogi & Co., Ltd., priority 2014, dated 2018)

Assays:
HIV (HTLV-IIIB strain) = experiment: HIV Replication Inhibition Assay; format: cell-based; conditions: Human immunodeficiency virus 1, MT4, 96 h, MT-4 cells, cultured four days, MTT, concentration at which cell cytotoxicity by virus is inhibited 50%
Procedure: HIV (HTLV-IIIB strain) persistent infected human T cell strain Molt-4 clone 8 was cultured in 10% Fetal Bovine Serum-containing RPMI-1640 medium and the supernatant was filtered, then the virus titer was measured and the solution was stored at −80° C. Each anti-human immunodeficiency virus active substance was diluted with the above cultured medium to the designated concentration, which was dispensed into 96 well micro plate by 50 μL. Next, a MT-4 cell suspended liquid was dispensed by 100 μL (2.5×10^4 cells), then the above HIV-containing supernatant diluted with the above cultured medium was added thereto by 50 μl (60 pfu (plaque forming unit)).
The obtained mixture was cultured at 37° C. in CO2 incubator for four days, then 3-(4,5-dimethylthiazole-2-yl)-2,5-diphenyltetrazolynium bromide (MTT) 5 mg/mL in PBS was added to each well by 30 μL, followed by 1 hr-cultivation. In this step, as formazan was precipitated by reduction of MTT in living cells, the cell supernatant was removed from all was by 150 μL, then a 150 μL of solution (10% Triton X-100 and 0.4% (v/v)-HCl containing isopropanol) was added thereto, followed by shaking with a plate mixer, to elute formazan. The formazan was measured with a microreader at OD: 560 nm and 690 nm (reference wavelength) and the result was compared with the reference. EC50 means the compound concentration at which cell cytotoxicity by virus is inhibited 50%.

Solubility Test = format: physicochemical; conditions: fassgf or other biorelevant, kinetic from dmso stock; 1% DMSO addition, artificial intestinal juice pH 6.8, 16 hours at 25° C.
Procedure: The solubility of the compound of the present invention was determined under 1% DMSO addition conditions. A 10 mmol/L solution of the compound was prepared with DMSO, and 6 μL of the solution was added to 594 μL of an artificial intestinal juice (: water and a 118 mL solution of 0.2 mol/L NaOH reagent are added to 250 mL of 0.2 mol/L potassium dihydrogen phosphate reagent to reach 1000 mL) with a pH of 6.8. The mixture was left standing for 16 hours at 25° C., and the mixture was vacuum-filtered. The filtrate was two-fold diluted with methanol/water=1/1(v/v), and the compound concentration in the filtrate was measured with HPLC or LC/MS/MS by the absolute calibration method.

[1] = biological target: T1, human ether-a-go-go related gene (hERG) channel (Homo sapiens, UniProt Q12809); experiment: hERG Test; format: cell-based; conditions: compound concentration 5 μmol/L, HEK293 cells expressing hERG, patch clamp
T1 construct: expressed in transfected cells; host or cells: HEK293
Description: For the purpose of assessing risk of an electrocardiogram QT interval prolongation, effects on delayed rectifier K+ current (IKr), which plays an important role in the ventricular repolarization process of the compound of the present invention, was studied using HEK293 cells expressing human ether-a-go-go related gene (hERG) channel.
After a cell was retained at a membrane potential of −80 mV by whole cell patch clamp method using an automated patch clamp system (PatchXpress 7000A, Axon Instruments Inc.), IKr induced by depolarization pulse stimulation at +40 mV for 2 seconds and, further, repolarization pulse stimulation at −50 mV for 2 seconds was recorded. […] From the recording IKr, an absolute value of the tail peak current was measured based on the current value at the resting membrane potential using an analysis software (DataXpress ver. 1, Molecular Devices Corporation). Further, the inhibition relative to the tail peak current before application of the test substance was calculated, and compared with the vehicle-applied group (0.1% dimethyl sulfoxide solution) to access influence of the test substance on IKr. […]

BA Test = format: in vivo; conditions: plasma; oral vs intravenous administration, from AUCs, mouse or SD rats
Procedure: Materials and methods for studies an oral absorption (1) Animal: mouse or SD rats are used. (2) Breeding conditions: mouse or SD rats were allowed to freely take solid feed and sterilized tap water. (3) Dose and grouping: orally or intravenously administered at a predetermined dose; grouping is as follows (Dose depends on the compound) Oral administration: 1 to 30 mg/kg (n=2 to 3) Intravenous administration: 0.5 to 10 mg/kg (n=2 to 3) (4) Preparation of dosing solution: for oral administration, in a solution or a suspension state; for intravenous administration, in a solubilized state. (5) Administration method: in oral administration, forcedly administer into ventriculus with oralprobe; in intravenous administration, administer from caudal vein with a needle-equipped syringe. (6) Evaluation items: blood is collected over time, and the plasma concentration of drug is measured by LC/MS/MS. (7) Statistical analysis: regarding the transition of the plasma concentration, the area under the plasma concentration-time curve (AUC) is calculated by non-linear least squares program WinNonlin (Registered trademark), and the bioavailability (BA) is calculated from the AUCs of the oral administration group and intravenous administration group. (Result) Compound No. I-30: 45.2%

T1 sequence (Q12809 whole entry): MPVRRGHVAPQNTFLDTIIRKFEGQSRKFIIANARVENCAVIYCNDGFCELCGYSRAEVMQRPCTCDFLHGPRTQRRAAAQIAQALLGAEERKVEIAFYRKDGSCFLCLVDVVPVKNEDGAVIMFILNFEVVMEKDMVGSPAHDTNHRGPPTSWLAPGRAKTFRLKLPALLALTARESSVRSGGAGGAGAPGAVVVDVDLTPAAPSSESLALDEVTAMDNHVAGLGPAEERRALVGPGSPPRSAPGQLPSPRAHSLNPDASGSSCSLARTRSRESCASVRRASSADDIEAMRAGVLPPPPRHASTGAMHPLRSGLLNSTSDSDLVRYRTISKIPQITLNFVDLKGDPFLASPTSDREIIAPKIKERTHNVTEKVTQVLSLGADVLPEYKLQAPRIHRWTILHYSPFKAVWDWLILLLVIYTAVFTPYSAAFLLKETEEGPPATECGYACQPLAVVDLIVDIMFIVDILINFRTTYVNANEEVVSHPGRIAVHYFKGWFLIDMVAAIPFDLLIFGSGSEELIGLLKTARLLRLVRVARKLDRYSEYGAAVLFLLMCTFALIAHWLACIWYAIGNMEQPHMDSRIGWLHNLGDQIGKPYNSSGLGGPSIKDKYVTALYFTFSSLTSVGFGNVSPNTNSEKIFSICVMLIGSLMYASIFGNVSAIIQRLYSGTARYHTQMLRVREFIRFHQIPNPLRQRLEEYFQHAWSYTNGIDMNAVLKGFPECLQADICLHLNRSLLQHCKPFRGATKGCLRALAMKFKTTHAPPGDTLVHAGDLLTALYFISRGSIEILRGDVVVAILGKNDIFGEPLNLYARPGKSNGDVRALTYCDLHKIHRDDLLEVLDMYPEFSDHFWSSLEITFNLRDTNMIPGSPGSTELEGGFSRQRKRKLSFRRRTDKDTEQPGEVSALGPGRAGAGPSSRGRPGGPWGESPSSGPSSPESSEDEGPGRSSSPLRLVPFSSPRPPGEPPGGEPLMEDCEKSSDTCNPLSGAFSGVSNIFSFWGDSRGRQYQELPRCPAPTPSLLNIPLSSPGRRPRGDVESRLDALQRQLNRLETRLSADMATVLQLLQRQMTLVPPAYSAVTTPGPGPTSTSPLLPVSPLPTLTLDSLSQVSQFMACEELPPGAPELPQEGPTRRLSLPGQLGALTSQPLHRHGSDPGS

In the case of `Cc1ccc(-c2c([C@H](OC(C)(C)C)C(=O)O)c(C)c3c4c2cc(-c2nnc(-c5ccc6c(cnn6C)c5)o2)n4CCN3C)cc1` [Compound I-037], the EC50 (HIV (HTLV-IIIB strain)) is reported as 0.4 nM.

Work on `Cc1c([C@H](OC(C)(C)C)C(=O)O)c(C2=CCC(C)(C)CC2)c2cc(-c3ccnc(-c4ccc5c(cnn5C)c4)c3)n3c2c1N(S(C)(=O)=O)CC3` [Compound I-015] yielded an EC50 (HIV (HTLV-IIIB strain)) of 4 nM.

For `Cc1ccc(-c2c([C@H](OC(C)(C)C)C(=O)O)c(C)c3c4c2cc(C(=O)NCc2ccccc2)n4CCN3S(C)(=O)=O)cc1` [Compound I-032], the EC50 (HIV (HTLV-IIIB strain)) was 5.2 nM.

`Cc1ccc(-c2c([C@H](OC(C)(C)C)C(=O)O)c(C)c3c4c2cc(-c2ccnc(-c5ccc6c(cnn6C)c5)c2)n4CCN3S(C)(=O)=O)cc1` [Compound I-011] showed an EC50 (HIV (HTLV-IIIB strain)) of 2.3 nM.

In the case of `CC(=O)N1CCn2c(-c3ccnc(-c4ccc5c(cnn5C)c4)c3)cc3c(-c4ccc(C)cc4)c([C@H](OC(C)(C)C)C(=O)O)c(C)c1c32` [Compound I-013], the EC50 (HIV (HTLV-IIIB strain)) is reported as 3.4 nM.

`Cc1c(-c2c([C@H](OC(C)(C)C)C(=O)O)c(C)c3c4c2cc(-c2ccnc(-c5ccc6c(cnn6C)c5)c2)n4CCN3S(C)(=O)=O)ccc2c1NCCO2` [Compound I-022] showed an EC50 (HIV (HTLV-IIIB strain)) of 4 nM.

`CC(=O)N1CCn2c(-c3ccnc(-c4ccc5c(cnn5C)c4)c3)cc3c(-c4ccc5c(c4C)NCCO5)c([C@H](OC(C)(C)C)C(=O)O)c(C)c1c32` [Compound I-027] gave an EC50 (HIV (HTLV-IIIB strain)) of 1.7 nM.

Work on `CC(=O)N1CCn2c(-c3ccnc(-c4ccc5c(cnn5C)c4)c3)cc3c(-c4ccc(C)cc4)c(C(OC(C)(C)C)C(=O)O)c(C)c1c32` (stereo not shown) [Compound I-012] yielded an EC50 (HIV (HTLV-IIIB strain)) of 3.7 nM.

Molecule `Cc1ccc(-c2c([C@H](OC(C)(C)C)C(=O)O)c(C)c3c4c2cc(C(=O)NCCC(C)(C)C)n4CCN3C)cc1` [Compound I-035] has an EC50 (HIV (HTLV-IIIB strain)) of 5.2 nM.

`Cc1ccc(-c2c([C@H](OC(C)(C)C)C(=O)O)c(C)c3c4c2cc(C(=O)NCCC(C)(C)C)n4CCN3S(C)(=O)=O)cc1` [Compound I-031] showed an EC50 (HIV (HTLV-IIIB strain)) of 2.9 nM.

For `Cc1c(-c2c([C@H](OC(C)(C)C)C(=O)O)c(C)c3c4c2cc(-c2ccnc(-c5ccc6c(cnn6C)c5)c2)n4CCN3S(C)(=O)=O)cc(F)c2c1CCCO2` [Compound I-014], the EC50 (HIV (HTLV-IIIB strain)) was 1.3 nM.

For `Cc1ccc(-c2c([C@H](OC(C)(C)C)C(=O)O)c(C)c3c4c2cc(-c2ccnc(N5CCN(C(C)C)CC5)c2)n4CCN3S(C)(=O)=O)cc1` [Compound I-017], the EC50 (HIV (HTLV-IIIB strain)) was 9.1 nM and the solubility at 16 h (Solubility Test) was > 50 µM.

With `Cc1ccc(-c2c([C@H](OC(C)(C)C)C(=O)O)c(C)c3c4c2cc(-c2ccnc(-c5ccc6c(cnn6C)c5)c2)n4CCN3C(=O)CN(C)C)cc1` [Compound I-021] the EC50 (HIV (HTLV-IIIB strain)) was 3.8 nM.

`Cc1ccc(-c2c([C@H](OC(C)(C)C)C(=O)O)c(C)c3c4c2cc(-c2ccnc(-c5ccc6c(cnn6C)c5)c2)n4CS(=O)(=O)N3C)cc1` [Compound I-029] gave an EC50 (HIV (HTLV-IIIB strain)) of 2.4 nM.

For `Cc1c(-c2c(C(OC(C)(C)C)C(=O)O)c(C)c3c4c2c(C)cn4CCN3S(C)(=O)=O)ccc2c1CCCO2` (single isomer, unassigned) [Compound I-006], the EC50 (HIV (HTLV-IIIB strain)) was 14 nM.

Molecule `Cc1ccc(-c2c([C@H](OC(C)(C)C)C(=O)O)c(C)c3c4c2cc(-c2nnc(C)o2)n4CCN3C)cc1` [Compound I-041] has an EC50 (HIV (HTLV-IIIB strain)) of 4.6 nM.

With `Cc1ccc(-c2c([C@H](OC(C)(C)C)C(=O)O)c(C)c3c4c2cc(-c2ccnc(-c5ccc6c(cnn6C)c5)c2)n4CC(C)N3S(C)(=O)=O)cc1` (stereo partly shown) [Compound I-023] the EC50 (HIV (HTLV-IIIB strain)) was 0.82 nM.

For `Cc1ccc(-c2c([C@H](OC(C)(C)C)C(=O)O)c(C)c3c4c2cc(C(=O)N(C)C)n4CCN3C)cc1` [Compound I-040], the EC50 (HIV (HTLV-IIIB strain)) was 67 nM.

For `Cc1c([C@H](OC(C)(C)C)C(=O)O)c(-c2ccc(Cl)cc2)c2cc(-c3ccnc(-c4ccc5c(cnn5C)c4)c3)n3c2c1N(S(C)(=O)=O)CC3` [Compound I-016], the EC50 (HIV (HTLV-IIIB strain)) was 3.9 nM.

In the case of `Cc1ccc(-c2c([C@H](OC(C)(C)C)C(=O)O)c(C)c3c4c2cc(-c2ccnc(-c5ccc6c(cnn6C)c5)c2)n4CCN3C)cc1` [Compound I-030], the EC50 (HIV (HTLV-IIIB strain)) is reported as 1.9 nM, the “inhibition ratio (IKr tail peak current)” value [1] is reported as 11.7% and the bioavailability (BA Test) is reported as 45.2%.

For `Cc1ccc(-c2c(C(OC(C)(C)C)C(=O)O)c(C)c3c4c2cc(-c2ccnc(Cl)c2)n4CCN3S(C)(=O)=O)cc1` (stereo not shown) [Compound I-010], the EC50 (HIV (HTLV-IIIB strain)) was 16 nM.

Work on `Cc1ccc(-c2c(C(OC(C)(C)C)C(=O)O)c(C)c3c4c2cc(-c2ccnc(-c5ccc6c(cnn6C)c5)c2)n4CCN3S(C)(=O)=O)cc1` (stereo not shown) [Compound I-008] yielded an EC50 (HIV (HTLV-IIIB strain)) of 5.9 nM.

`CC(=O)N1CCn2c(-c3ccnc(-c4ccc5c(cnn5C)c4)c3)cc3c(-c4ccc(Cl)cc4)c([C@H](OC(C)(C)C)C(=O)O)c(C)c1c32` [Compound I-028] showed an EC50 (HIV (HTLV-IIIB strain)) of 3.3 nM.

For `Cc1ccc(-c2c(C(OC(C)(C)C)C(=O)O)c(C)c3c4c2cc(-c2ccnc(N5CCN(C(C)C)CC5)n2)n4CCN3S(C)(=O)=O)cc1` (stereo not shown) [Compound I-009], the EC50 (HIV (HTLV-IIIB strain)) was 32 nM.

`CC(=O)N1CCn2c(-c3ccnc(-c4ccc5c(cnn5C)c4)c3)cc3c(-c4cc(F)c5c(c4C)CCCO5)c([C@H](OC(C)(C)C)C(=O)O)c(C)c1c32` [Compound I-018] showed an EC50 (HIV (HTLV-IIIB strain)) of 1.1 nM.

With `Cc1ccc(-c2c([C@H](OC(C)(C)C)C(=O)O)c(C)c3c4c2cc(-c2ccnc(-c5ccc6c(cnn6C)c5)c2)n4CC(=O)N3)cc1` [Compound I-019] the EC50 (HIV (HTLV-IIIB strain)) was 6 nM.

`Cc1ccc(-c2c([C@H](OC(C)(C)C)C(=O)O)c(C)c3c4c2cc(C(N)=O)n4CCN3C)cc1` [Compound I-044] showed an EC50 (HIV (HTLV-IIIB strain)) of 44 nM.

For `Cc1ccc(-c2c([C@H](OC(C)(C)C)C(=O)O)c(C)c3c4c2cc(-c2ccnc(-c5ccc6c(cnn6C)c5)c2)n4CC(=O)N3C)cc1` [Compound I-020], the EC50 (HIV (HTLV-IIIB strain)) was 3.6 nM.

In the case of `Cc1ccc(-c2c([C@H](OC(C)(C)C)C(=O)O)c(C)c3c4c2cc(-c2ccnc(-c5ccc6c(cnn6C)c5)c2)n4CS(=O)(=O)N3)cc1` [Compound I-025], the EC50 (HIV (HTLV-IIIB strain)) is reported as 89 nM.

Molecule `CC(=O)N1CCn2c(-c3ccnc(-c4ccc5c(cnn5C)c4)c3)cc3c(C4=CCC(C)(C)CC4)c([C@H](OC(C)(C)C)C(=O)O)c(C)c1c32` [Compound I-026] has an EC50 (HIV (HTLV-IIIB strain)) of 3.7 nM.

For `Cc1ccc(-c2c([C@H](OC(C)(C)C)C(=O)O)c(C)c3c4c2cc(C(=O)N2CCC(c5ccccc5)CC2)n4CCN3S(C)(=O)=O)cc1` [Compound I-024], the EC50 (HIV (HTLV-IIIB strain)) was 4.2 nM.
